Key:
[1] = test system: ABUTH; assay: Pre-emergence herbicidal action against ABUTH; format: in vivo, Abutilon theophrasti; details: for Pre-emergence action against ABUTH (herbicidal activity): 80 g/ha, scored visually after 3 weeks vs untreated controls (100% = plants have died, 0% = like control plants); for Pre-emergence action against ABUTH (herbicidal activity in percent): dosage 20 g/ha, scored visually after 3 weeks vs untreated controls, 100% = plants have died, 0% = like control plants
Summary of the method: (§1)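 Herbicidal effect was assessed 3 weeks after treatment by visual comparison with untreated controls, 100% denoting dead plants. Aqueous WP or EC preparations had been applied at 600 to 800 l/ha with 0.2% wetting agent to the soil covering freshly sown seeds.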

[2] = test system: ALOMY; assay: Pre-emergence herbicidal action against ALOMY; format: in vivo, Alopecurus myosuroides; details: 80 g/ha, pre-emergence, scored visually after 3 weeks vs untreated controls (100% = plants have died, 0% = like control plants)
Summary of the method: as §1

[3] = test system: AMARE; assay: Pre-emergence herbicidal action against AMARE; format: in vivo, Amaranthus retroflexus
Summary of the method: as §1

[4] = test system: AVEFA; assay: Pre-emergence herbicidal action against AVEFA; format: in vivo, Avena fatua; details: 80 g/ha, pre-emergence
Summary of the method: as §1

[5] = test system: MATIN; assay: Pre-emergence herbicidal action against MATIN; format: in vivo, Matricaria inodora
Summary of the method: as §1

[6] = test system: POLCO; assay: Pre-emergence herbicidal action against POLCO; format: in vivo, Polygonum convolvulus
Summary of the method: as §1

[7] = test system: SETVI; assay: Pre-emergence herbicidal action against SETVI; format: in vivo, Setaria viridis; details: dosage 80 g/ha
Summary of the method: as §1

[8] = test system: STEME; assay: Pre-emergence herbicidal action against STEME; format: in vivo, Stellaria media
Summary of the method: as §1

[9] = test system: VERPE; assay: Pre-emergence herbicidal action against VERPE; format: in vivo, Veronica persica; details: dosage 80 g/ha
Summary of the method: as §1

[10] = test system: VIOTR; assay: Pre-emergence herbicidal action against VIOTR; format: in vivo, Viola tricolor
Summary of the method: as §1

[11] = test system: DIGSA; assay: Pre-emergence herbicidal action against DIGSA; format: in vivo, Digitaria sanguinalis
Summary of the method: as §1

[12] = test system: ABUTH; assay: Post-emergence herbicidal action against ABUTH; format: in vivo, Abutilon theophrasti; details: visual assessment about 3 weeks after treatment vs untreated controls
Summary of the method: (§2)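 Herbicidal effect was scored visually in percent after about 3 weeks in the greenhouse. Plants had been raised in sandy loam and treated post-emergence at the one-leaf stage with formulated compound at 600 to 800 l/ha water plus 0.2% wetting agent.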

[13] = test system: AMARE; assay: Post-emergence herbicidal action against AMARE; format: in vivo, Amaranthus retroflexus; details: 20 g/ha, visual assessment about 3 weeks after treatment, 100% = plants have died, 0% = like control plants
Summary of the method: as §2

[14] = test system: AVEFA; assay: Post-emergence herbicidal action against AVEFA; format: in vivo, Avena fatua; details: 20 g/ha, visual assessment about 3 weeks after treatment, 100% = plants have died, 0% = like control plants
Summary of the method: as §2

[15] = test system: ECHCG; assay: Post-emergence herbicidal action against ECHCG; format: in vivo, Echinochloa crus-galli; details: dosage 20 g/ha
Summary of the method: as §2

[16] = test system: MATIN; assay: Post-emergence herbicidal action against MATIN; format: in vivo, Matricaria inodora
Summary of the method: as §2

[17] = test system: PHBPU; assay: Post-emergence herbicidal action against PHBPU; format: in vivo, Pharbitis purpurea
Summary of the method: as §2

[18] = test system: STEME; assay: Post-emergence herbicidal action against STEME; format: in vivo, Stellaria media; details: 20 g/ha
Summary of the method: as §2

[19] = test system: VERPE; assay: Post-emergence herbicidal action against VERPE; format: in vivo, Veronica persica; details: 20 g/ha
Summary of the method: as §2

[20] = test system: VIOTR; assay: Post-emergence herbicidal action against VIOTR; format: in vivo, Viola tricolor; details: 20 g/ha
Summary of the method: as §2

[21] = test system: ECHCG; assay: Pre-emergence herbicidal action against ECHCG; format: in vivo, Echinochloa crus-galli; details: 80 g/ha
Summary of the method: as §1

[22] = test system: LOLRI; assay: Pre-emergence herbicidal action against LOLRI; format: in vivo, Lolium rigidum; details: 80 g/ha
Text: Seeds of monocotyledonous and dicotyledonous weed plants and crop plants are laid out in sandy loam soil in wood-fiber pots and covered with soil. The compounds of the invention, formulated in the form of wettable powders (WP) or as emulsion concentrates (EC), are then applied to the surface of the covering soil in the form of an aqueous suspension or emulsion at a water application rate equivalent to 600 to 800 l/ha, with addition of 0.2% wetting agent. After the treatment, the pots are placed in a greenhouse and kept under good growth conditions for the trial plants. The damage to the test plants is scored visually after a test period of 3 weeks by comparison with untreated controls (herbicidal activity in percent (%): 100% activity=the plants have died, 0% activity=like control plants). […] The tables below illustrate, in an illustrative manner, the post-emergence herbicidal action of the compounds of the invention, the herbicidal activity being stated in percent.

[23] = 20 g/ha, scored visually after 3 weeks vs untreated controls, 100% = plants have died, 0% = like control plants
[24] = 80 g/ha, scored visually after 3 weeks vs untreated controls (100% = plants have died, 0% = like control plants)

| SMILES | Pre-emergence action against ABUTH (herbicidal activity) [1] | Pre-emergence action against ABUTH (herbicidal activity in percent) [1] | Pre-emergence action against AMARE in % [3, 23] | Pre-emergence action against AMARE in % [3, 24] | Pre-emergence action against MATIN in % ([5]; dosage 80 g/ha) | Pre-emergence action against VERPE in % [9] | Post-emergence action against ABUTH in % ([12]; dosage 20 g/ha) | Post-emergence action at 20 g/ha against AMARE in % [13] | Post-emergence action against ECHCG in % [15] | Post-emergence action against PHBPU in % ([17]; dosage 5 g/ha) | Post-emergence action against PHBPU in % ([17]; dosage 20 g/ha) | also measured |
| --- | --- | --- | --- | --- | --- | --- | --- | --- | --- | --- | --- | --- |
| CCn1nnnc1NC(=O)c1ccc(C(F)F)c(C(=O)NC)c1C [Example 2-44] | 100% | 100% | 100% | 100% | 100% | 90% | 90% | 100% | 80% | 80% | 80% | Pre-emergence action against ALOMY (herbicidal activity) [2]: 80%; Pre-emergence action against AVEFA in % [4]: 90%; Pre-emergence action against MATIN in % ([5]; dosage 20 g/ha): 90%; Pre-emergence action against POLCO in % ([6]; dosage 20 g/ha): 80%; Pre-emergence action against POLCO in % ([6]; dosage 80 g/ha): 90%; Pre-emergence action against SETVI in % [7]: 100%; Pre-emergence action against STEME in % ([8]; dosage 20 g/ha): 90%; Pre-emergence action against STEME in % ([8]; dosage 80 g/ha): 100%; Pre-emergence action against VIOTR in % ([10]; dosage 20 g/ha): 100%; Pre-emergence action against VIOTR in % ([10]; dosage 80 g/ha): 100%; Pre-emergence action against DIGSA in % ([11]; dosage 20 g/ha): 100%; Pre-emergence action against DIGSA in % ([11]; dosage 80 g/ha): 100%; Post-emergence action against ABUTH in % ([12]; dosage 5 g/ha): 80%; Post-emergence action at 20 g/ha against AVEFA in % [14]: 80%; Post-emergence action against MATIN in % ([16]; dosage 5 g/ha): 80%; Post-emergence action against MATIN in % ([16]; dosage 20 g/ha): 80%; Post-emergence action against STEME in % [18]: 80%; Post-emergence action against VERPE in % [19]: 80%; Post-emergence action against VIOTR in % [20]: 80% |
| Cn1nnnc1NC(=O)c1ccc(C(F)F)c(C(=O)NCC2CCCO2)c1Cl (stereo not shown) [Example 1-159] | 100% | 80% | 100% | 100% | 90% | 80% | 80% | 100% | 90% | 80% | 80% | Pre-emergence action against ECHCG in % [21]: 90%; Pre-emergence action against LOLRI in % [22]: 80% |
